The results in this text go back to patent US10100372B2, “Recombinant RSV reporter virus” (priority 2014, dated 2018).

Read-outs that look alike come from different tables or passages of the source. *1 amine or outer side, *2 acyl side, *3 side chain or, on linkers, in order; H or OH if unused. Where a SMILES comes first, the peptide text is derived from it. Bridges are numbered along the chain shown (N, C = ends). Roman numbers before positions name the chains, in order. [ ]: non-standard residue; d: D form. Actinocin(9to1) = Cc1c2oc3c(C)ccc(C(=O)[*:1])c3nc-2c(C(=O)[*:2])c(N)c1=O; NMeV = CN[C@H](C(=O)O)C(C)C; Sar = CNCC(=O)O Where only a bound is given, the exact number is not on record here.

The subject of data set [1] is recRSV A2-L19F-renilla. The experiment in a line: microbe, parasite or virus in culture. Type of data set: cell-based. The conditions noted are these: BEAS-2B, 95% confidence interval in parentheses, inactive = less than 50% reduction of mean reporter signal; for EC50: read-out: EC50 RSV A2-L19F-renilla.
For data set [2], the system named is recIAV WSN-NanoLuc. The conditions noted are these: for SI [CC50/EC50] IAV: SIIAV.
In data set [3] the test system is recRSV A2-L19FD489E-fireSMASh. To be noted: for SI [CC50/EC50] RSV: SIRSV.
A short description of data set [4]: in vitro. The conditions noted are these: human.
For data set [5], the system named is recRSV A2-L19FD489E-fireSMASh. The experiment in a line: microbe, parasite or virus in culture. To be noted: human respiratory syncytial virus, BEAS-2B, read-out: EC50 RSV A2-L19FD489E-fireSMASh.
In data set [6] the test system is BEAS-2B cells. To be noted: highest concentration 10 μM, tox = less than 50% cell viability after 44 hours at ≤10 μM.
Data set [7] concerns recIAV WSN-NanoLuc. The experiment in a line: microbe, parasite or virus in culture. To be noted: Influenza A virus, BEAS-2B, read-out: EC50 IAV WSN-nanoLuc.
Data set [8] concerns recRSV A2-L19FD489E-fireSMASh. Description: microbe, parasite or virus in culture. Format: cell-based, Respiratory Syncytial Virus. The conditions noted are these: 384-well, four replicate screens, mean ± SD, BEAS-2B co-infection; for inhibition at 5 µM: human respiratory syncytial virus, read-out: % Inhibition (anti-RSV).
Data set [9] deals with recIAV WSN-NanoLuc. The experiment in a line: microbe, parasite or virus in culture. Type of data set: cell-based, influenza virus IAV/WSN/33 (H1N1). The conditions noted are these: for inhibition at 5 µM: unidentified influenza virus, WSN, BEAS-2B, read-out: % Inhibition (anti-IAV).
Setting [10] is: BEAS-2B, 95% confidence interval in parentheses, inactive = less than 50% reduction of mean reporter signal.
The mark [11] stands for this setting: human respiratory syncytial virus.

As a reminder, the EC50 is the concentration giving half of the maximal effect. A word on the inhibition: it is the share of the control response that was lost under treatment.

Take `COc1cc2nc(N3CCCN(C)CC3)nc(NC3CCN(Cc4ccccc4)CC3)c2cc1OC` [BIX 01294]: the “EC50 RSV A2-L19F-renilla” value in [1] is “inactive^e”. The “EC50 IAV WSN-nanoLuc” value in data set [2] (setting [10]) is “inactive^e”. For the same molecule, the “EC50 RSV A2-L19FD489E-fireSMASh” value in [3] (setting [10]) is “inactive^e”. Also, the CC50 in data set [4] is more than 10 µM.

As to `CC1=C(/C=C/C(C)=C/C=C/C(C)=C/C(=O)Nc2ccc(O)cc2)C(C)(C)CCC1` [Fenretinide], the half-maximal effective concentration (EC50) in data set [1] (setting [11]) turned out to be 4.8 µM; in data set [5], 3.6 µM. Further, the “EC50 IAV WSN-nanoLuc” value in [2] (setting [10]) is “inactive^e”. Further, the “effect on IAV reporter strain” value in data set [2] (highest concentration tested) was “unaffected”. The “SI [CC50/EC50] RSV” value in data set [3] was “SIRSV >2.8”. Also, the “selectivity for RSV reporter” value in [3] (dose-response counterscreen) is on record as “selectively inhibited RSV”. Besides, the CC50 in data set [4] was more than 10 µM.

Take `Nc1nc2c(c(=O)[nH]1)C[C@@H](CCc1ccc(C(=O)N[C@@H](CCC(=O)O)C(=O)O)cc1)CN2` [Lometrexol]: in data set [6], the “CC50 (PrestoBlue cell viability)” value is reported as “tox^d”.

On to `NC(=O)c1ncn([C@@H]2O[C@H](CO)[C@@H](O)[C@H]2O)n1` [Ribavirin], for which the EC50 in data set [1] (setting [11]) stood at 2.9 µM; in data set [7] it was 4.5 µM; in [5] it was 2.6 µM. Also, the “SI [CC50/EC50] IAV” value in [2] was “SIIAV >2.2”. Besides, in data set [3], the “SI [CC50/EC50] RSV” value was “SIRSV >3.9”. In data set [4], this molecule had a CC50 of more than 10 µM.

Regarding ET-18-OCH3, in [1], the “EC50 RSV A2-L19F-renilla” value is “inactive^e”. In addition, the “EC50 IAV WSN-nanoLuc” value in [2] (setting [10]) was “inactive^e”. In addition, the “EC50 RSV A2-L19FD489E-fireSMASh” value in [3] (setting [10]) is “inactive^e”. Besides, in [6] (read-out: CC50 (PrestoBlue cell viability)), the CC50 was more than 10 µM.

As for `Cn1nnc2c(C(N)=O)ncn2c1=O` [Temozolomide], the inhibition at 5 µM in data set [8] turned out to be 96 ± 1.3%; in [9] it was 55 ± 3.2%.

In the case of `Cc1c(-c2ccc(-c3ccccc3F)cc2)nc2ccc(F)cc2c1C(=O)O` [Brequinar], the EC50 in [1] (setting [11]) was 1.8 µM; in [7] it was 2.6 µM; in [5] it was 1.6 µM. Also, the “SI [CC50/EC50] IAV” value in data set [2] is “SIIAV >3.8”. For the same molecule, the “SI [CC50/EC50] RSV” value in data set [3] was “SIRSV >6.3”. This molecule had a CC50 in data set [4] of more than 10 µM.

Consider `CN(Cc1cnc2nc(N)nc(N)c2n1)c1ccc(C(=O)N[C@@H](CCC(=O)O)C(=O)O)cc1` [Methotrexate], for which the figures for the inhibition at 5 µM in data set [8] and in [9] were 99 ± 0.5% and 100 ± 0.6%, respectively.

Consider `CC(=O)N[C@H]1[C@H]([C@H](O)[C@H](O)CO)OC(C(=O)O)=C[C@@H]1N=C(N)N` [Zanamivir], for which the “EC50 RSV A2-L19F-renilla” value in data set [1] was “Inactive”. The “SI [CC50/EC50] IAV” value in [2] was “SI^IAV >500”. Further, the “selectivity for IAV reporter” value in [2] (dose-response counterscreen) is given as “selectively inhibited the IAV reporter”. Besides, the “EC50 RSV A2-L19FD489E-fireSMASh” value in data set [3] (setting [10]) is given as “Inactive”. For the same molecule, in data set [4], the CC50 was more than 10 µM. The EC50 in data set [7] was determined as 0.02 µM.

For `CCN(CC)CCNC(=O)c1c(C)[nH]c(/C=C2\C(=O)Nc3ccc(F)cc32)c1C` [Sunitinib], in [6], the “CC50 (PrestoBlue cell viability)” value was “tox^d”.

Regarding `COc1cc([C@@H]2c3cc4c(cc3[C@@H](O[C@@H]3O[C@@H]5CO[C@@H](C)O[C@H]5[C@H](O)[C@H]3O)[C@H]3COC(=O)[C@H]23)OCO4)cc(OC)c1O` [Etoposide], the inhibition at 5 µM in [8] was 80 ± 6.6%; in data set [9], 56 ± 5.6%.

On to `C[n+]1cc2c3c(ccc2c2ccc4cc5c(cc4c21)OCO5)OCO3` [Sanguinarine], for which the “CC50 (PrestoBlue cell viability)” value in [6] is on record as “tox^d”.

For `Cn1c(=O)c(-c2c(Cl)cccc2Cl)cc2cnc(Nc3ccc(N4CCOCC4)cc3)nc21` [PD173952], in [6], the “CC50 (PrestoBlue cell viability)” value is “tox^d”.

For Stattic, the concentration giving a half-maximal response (EC50) in data set [1] was 15.1 µM; in data set [2] (read-out: EC50 IAV WSN-nanoLuc, BEAS-2B, 95% confidence interval in parentheses, inactive = less than 50% reduction of mean reporter signal), 3.3 µM; in [3] (read-out: EC50 RSV A2-L19FD489E-fireSMASh, BEAS-2B, 95% confidence interval in parentheses, inactive = less than 50% reduction of mean reporter signal), 5.9 µM. Also, the “SI [CC50/EC50] IAV” value in data set [2] is listed as “SIIAV 3”.

In the case of `COc1cccc2c1C(=O)c1c(O)c3c(c(O)c1C2=O)C[C@@](O)(C(=O)CO)C[C@@H]3O[C@H]1C[C@H](N)[C@@H](O)[C@H](C)O1` [Epirubicin], the figures for the inhibition at 5 µM in data set [8] and in [9] were 62 ± 6.3% and 75 ± 3.1%, respectively.

On to `Cc1c2oc3c(C)ccc(C(=O)N[C@@H]4C(=O)N[C@H](C(C)C)C(=O)N5CCC[C@H]5C(=O)N(C)CC(=O)N(C)[C@@H](C(C)C)C(=O)O[C@@H]4C)c3nc-2c(C(=O)N[C@@H]2C(=O)N[C@H](C(C)C)C(=O)N3CCC[C@H]3C(=O)N(C)CC(=O)N(C)[C@@H](C(C)C)C(=O)O[C@@H]2C)c(N)c1=O` [Actinomycin D] (I: T[dV]P[Sar][NMeV] / II: T[dV]P[Sar][NMeV]; ester I:1-I:C, II:1-II:C; linker I:N-II:N via Actinocin(9to1)), for which the “% Inhibition (anti-RSV)” value in data set [8] (5 μM) stood at 52 ± 9.6%. The “% Inhibition (anti-IAV)” value in data set [9] (5 μM) is 104 ± 1.5%.

In the case of `Cc1nc2ccc(CN(C)c3ccc(C(=O)N[C@@H](CCC(=O)O)C(=O)O)s3)cc2c(=O)[nH]1` [Raltitrexed], the inhibition at 5 µM is 91 ± 1% in data set [8] and 60 ± 6.5% in data set [9].

Take `CN(CCOc1ccc(CC2SC(=O)NC2=O)cc1)c1ccccn1` (stereo not drawn) [Rosiglitazone]: the inhibition at 5 µM in [8] was 85 ± 5.8%; in data set [9], 35 ± 5%.

For `COC(=O)C[C@](O)(CCCC(C)(C)O)C(=O)O[C@@H]1C(OC)=C[C@]23CCCN2CCc2cc4c(cc2[C@H]13)OCO4` [Homoharringtonine], the values for the inhibition at 5 µM in data set [8] and in [9] were 98 ± 0.5% and 90 ± 2.6%, respectively.

On to `CCOC(=O)C1=C(C)NC(C)=C(C(=O)OC)C1c1cccc([N+](=O)[O-])c1` (stereo not drawn) [Nitrendipine], for which, in data set [1], the “EC50 RSV A2-L19F-renilla” value was “inactive^e”. For the same molecule, in [2] (setting [10]), the “EC50 IAV WSN-nanoLuc” value was “inactive^e”. The “EC50 RSV A2-L19FD489E-fireSMASh” value in data set [3] (setting [10]) was “inactive^e”. The CC50 in [4] is more than 10 µM.

With `Nc1nc(N)c2nc(-c3ccccc3)c(N)nc2n1` [Triamterene], in [1], the “EC50 RSV A2-L19F-renilla” value was “inactive^e”. Further, in data set [2] (setting [10]), the “EC50 IAV WSN-nanoLuc” value is “inactive^e”. The “EC50 RSV A2-L19FD489E-fireSMASh” value in [3] (setting [10]) was “inactive^e”. In addition, the CC50 in data set [4] is more than 10 µM.

Consider `c1cnc2c(c1)ccc1cccnc12` [Phenanthroline], for which, in [4], the CC50 was determined as 2.4 µM.

For the molecule `CC[C@H]1CN2CCc3cc(OC)c(OC)cc3[C@@H]2C[C@@H]1C[C@H]1NCCc2cc(OC)c(OC)cc21` [Emetine], the “CC50 (PrestoBlue cell viability)” value in data set [6] is “tox^d”.

Take `CNc1ccc2oc(C[C@H]3O[C@@]4(CC[C@H]3C)O[C@H]([C@H](C)C(=O)c3ccc[nH]3)[C@H](C)C[C@H]4C)nc2c1C(=O)O` [Calcimycin]: in data set [6], the “CC50 (PrestoBlue cell viability)” value is listed as “tox^d”.

`CCN(CC)CCOc1ccc(Nc2ncc3cc(-c4c(Cl)cccc4Cl)c(=O)n(C)c3n2)cc1` [PD-166285]: in data set [6], the “CC50 (PrestoBlue cell viability)” value is given as “tox^d”.

As to `CC(=O)[C@]1(O)Cc2c(O)c3c(c(O)c2[C@@H](O[C@H]2C[C@H](N)[C@H](O)[C@H](C)O2)C1)C(=O)c1ccccc1C3=O` [Idarubicin], the inhibition at 5 µM stood at 95 ± 1.3% in data set [8] and 97 ± 1% in [9]. In [6], the “CC50 (PrestoBlue cell viability)” value is reported as “tox^d”.

`CC[C@]1(O)C[C@H]2CN(CCc3c([nH]c4ccccc34)[C@@](C(=O)OC)(c3cc4c(cc3OC)N(C=O)[C@H]3[C@@](O)(C(=O)OC)[C@H](OC(C)=O)[C@]5(CC)C=CCN6CC[C@]43[C@@H]65)C2)C1` [Vincristine]: the figures for the inhibition at 5 µM in data set [8] and in [9] were 79 ± 6.9% and 50 ± 2.9%, respectively.

As to `CC(=O)OC[C@H]1O[C@@H]([S-])[C@H](OC(C)=O)[C@@H](OC(C)=O)[C@@H]1OC(C)=O.CCP(CC)CC.[Au+]` [Auranofin], in data set [6], the “CC50 (PrestoBlue cell viability)” value is “tox^d”.
